Data as given in paper PMC9687805 (Biomolecules, 2022).

How the values were obtained:
[1] = system: porcine liver CES; design: method as in PMID 33831780; conditions: cited from earlier work
[2] = design: method as in PMID 33831780; conditions: cited from earlier work
[3] = target: T1, Human erythrocyte AChE (Homo sapiens, UniProt P22303); experiment: biochemical; conditions: human erythrocyte AChE; 5 min incubation, 25 °C, pH 7.5; mean ± SEM, n = 3; read-out: Inhibitory activity against AChE, IC50
T1 construct: purchased Sigma-Aldrich; host or cells: human erythrocytes
Procedure: (§1) The assay solution consisted of 0.1 M K/Na phosphate buffer pH 7.5, 25 °C, 0.33 mM DTNB, 0.02 unit/mL AChE or BChE, and 1 mM substrate (ATCh or BTCh, respectively). Reagent blanks consisted of reaction mixtures without substrates.
(§2) Each experiment was performed in triplicate.

[4] = target: T2, equine serum BChE (Equus caballus, UniProt P81908); experiment: biochemical; conditions: equine serum BChE; 5 min incubation, 25 °C, pH 7.5; mean ± SEM, n = 3; read-out: Inhibitory activity against BChE, IC50
T2 construct: purchased Sigma-Aldrich; host or cells: equine serum
Procedure: as §1, §2

[5] = target: T1, Human erythrocyte AChE; experiment: Kinetic study of AChE inhibition (Lineweaver-Burk); format: biochemical
Procedure: (§3) Mechanisms of human erythrocyte AChE and equine serum BChE inhibition were assessed via a thorough analysis of enzyme kinetics. Residual activity was measured following 5 min incubation at 25 °C with three increasing concentrations of inhibitor and six decreasing substrate concentrations.

[6] = target: T2, equine serum BChE; experiment: Kinetic study of BChE inhibition (Lineweaver-Burk); format: biochemical
Procedure: as §3

[7] = target: T3, EeAChE PAS (Electrophorus electricus, UniProt O42275); experiment: biochemical; format: binding; conditions: 0.25 h; compound 20 μM, EeAChE 7 μM, propidium iodide 8 μM; n.a. = not active; read-out: % Displacement of Propidium from the EeAChE PAS at 20 μM
T3 construct: purchased Sigma-Aldrich type VI-S; host or cells: electric eel
Procedure: Electrophorus electricus (EeAChE) (electric eel, type VI-S, lyophilized powder, Sigma-Aldrich, St. Louis, MO, USA) was used owing to its high degree of purification, high activity, and lower cost than human AChE (hAChE). […] To determine the degree of displacement (% displacement) of propidium from the PAS of AChE, EeAChE (final concentration, 7 μM) was incubated with the test compound at a concentration of 20 μM in 1 mM Tris-HCl buffer pH 8.0, 25 °C, for 15 min. Then, propidium iodide solution (final concentration, 8 μM) was added, the samples were incubated for 15 min, and the fluorescence spectrum (530 nm (excitation) and 600 nm (emission)) was taken. […] The blank contained propidium iodide of the same concentration in 1 mM Tris-HCl buffer, pH 8.0 at 25 °C. The measurements were carried out in triplicate on a FLUOStar Optima microplate reader (LabTech, Ortenberg, Germany), and the results were calculated by the following formula:% Displacement = 100 − (IFAChE + Propidium + inhibitor / IFAChE + Propidium) × 100 (1) where IFAChE + Propidium is the fluorescence intensity of the propidium associated with AChE in the absence of the test compound (taken as 100%), and IFAChE + Propidium + inhibitor is the fluorescence intensity of the propidium associated with AChE in the presence of the test compound.

[8] = ABTS radical cation scavenging activity assay; design: key to ABTS•+-scavenging activity, TEAC: ratio of slopes, tested compound vs Trolox (Trolox = 1); conditions: n=3, 1 h, 30 °C
Procedure: Radical scavenging activity of the compounds was evaluated by the ABTS radical cation (ABTS^•+) scavenging assay showing the ability of the compounds to decolorize the ABTS^•+ solution [86] with some modifications. Trolox was used as the antioxidant standard; ascorbic acid was used as the comparison compound. All tested compounds and standards were dissolved in DMSO.
The solution of ABTS^•+ was produced by mixing 7 mM ABTS aqueous solution with 2.45 mM potassium persulfate aqueous solution in equal quantities and allowing them to react for 12–16 h at room temperature in the dark. Radical scavenging capacity of the compounds was analyzed by mixing 10 µL of compound with 240 µL of ABTS^•+ working solution in ethanol (100 µM final concentration), and after 1 h of incubation at 30 °C the decrease in absorbance was measured spectrophotometrically at 734 nm using a Bio-Rad xMark microplate UV/VIS spectrophotometer (Bio-Rad, Hercules, CA, USA). The compounds were tested in the concentration range 5 × 10^−7–1 × 10^−4 M. Ethanol blanks were run in each assay. Values were obtained from five replicates of each sample and three independent experiments.
Antioxidant activity was reported as Trolox equivalent antioxidant capacity (TEAC values), consisting of the ratio between the slopes obtained from the linear correlation for concentrations of the tested compounds and Trolox with absorbance of ABTS radical. […] The calculations were carried out using Origin 6.1 for Windows (OriginLab, Northampton, MA, USA). Results are presented as mean ± SEM calculated using GraphPad Prism version 6.05 for Windows, GraphPad Software (San Diego, CA, USA).

[9] = Ferric reducing antioxidant power (FRAP) assay; conditions: Trolox equivalents; n=3, 1 h, 37 °C; mean ± SEM
Procedure: The FRAP (Ferric Reducing Antioxidant Power) assay measures the ability of antioxidants to reduce the ferric 2,4,6-tripyridyl-s-triazine complex [Fe(TPTZ)2]^3+ to the intensely blue-colored ferrous complex [Fe(TPTZ)2]^2+ with an absorption maximum at λ = 593 nm. The reducing ability of a compound is an indicator of its potential antioxidant activity.
The ferric reducing ability of the compounds was determined by a previously described method as a microplate-adapted version described in [42]. 2,4,6-tris(pyridin-2-yl)-1,3,5-triazine (TPTZ), FeCl3·6H2O, Trolox, ascorbic acid and DMSO were obtained from Sigma-Aldrich Chemical Co (St. Louis, MO, USA). The FRAP reagent was prepared by mixing acetate buffer (0.3 M, pH 3.6), TPTZ (10 mM in 40 mM HCl) and FeCl3·6H2O (20 mM in distilled water) in a ratio of 10:1:1 immediately before use. Compounds were dissolved in DMSO and tested in the concentration range of 1×10^−6–1×10^−4 M. The solvent content in the reaction mixture was 4% (v/v). The test compounds (10 µL) were added to the FRAP reagent solution (240 µL) and mixed thoroughly. The reaction was carried out at 37 °C in the dark, the incubation time was 1 h. The absorbance at 600 nm was monitored spectrophotometrically by a FLUOStar OPTIMA microplate reader (BMG Labtech, Germany) at 37 °C. Trolox was used as a standard antioxidant, ascorbic acid as a reference compound. Values were obtained from four replicates of each sample and three independent experiments.
The ferric reducing ability of compounds was expressed as TE units (antioxidant activity in Trolox equivalent) with the values calculated as the ratio of the concentrations of Trolox and the test compound resulting in the same effect.

[10] = system: porcine liver CES; experiment: CES inhibition, 4-nitrophenyl acetate hydrolysis; conditions: compound 20 μM; mean ± SEM, n = 3; n.a. = not active
Procedure: Final enzyme and substrate (4-nitrophenyl acetate) concentrations were 0.02 unit/mL and 1 mM, respectively. Assays were carried out with a blank containing all constituents except porcine CES to assess non-enzymatic hydrolysis. Measurements were performed with a FLUOStar Optima microplate reader (BMG Labtech, Ortenberg, Germany). Compounds were dissolved in DMSO; the incubation mixture contained 2% (v/v) solvent. The primary evaluation of the inhibitory activity of the compounds was performed by determining the degree of the enzyme inhibition at a compound concentration of 20 µM. For this, a sample of the corresponding enzyme was incubated with the test compound for 5 min; then the enzyme residual activity was determined. Each experiment was performed in triplicate. […] Substrate was then added and residual enzyme activity relative to an inhibitor-free control was measured using a FLUOStar Optima microplate reader.

[11] = Lineweaver-Burk plot, changes in Km and Vmax

T1 sequence (P22303 32-617 isoform P22303-2 limits assumed): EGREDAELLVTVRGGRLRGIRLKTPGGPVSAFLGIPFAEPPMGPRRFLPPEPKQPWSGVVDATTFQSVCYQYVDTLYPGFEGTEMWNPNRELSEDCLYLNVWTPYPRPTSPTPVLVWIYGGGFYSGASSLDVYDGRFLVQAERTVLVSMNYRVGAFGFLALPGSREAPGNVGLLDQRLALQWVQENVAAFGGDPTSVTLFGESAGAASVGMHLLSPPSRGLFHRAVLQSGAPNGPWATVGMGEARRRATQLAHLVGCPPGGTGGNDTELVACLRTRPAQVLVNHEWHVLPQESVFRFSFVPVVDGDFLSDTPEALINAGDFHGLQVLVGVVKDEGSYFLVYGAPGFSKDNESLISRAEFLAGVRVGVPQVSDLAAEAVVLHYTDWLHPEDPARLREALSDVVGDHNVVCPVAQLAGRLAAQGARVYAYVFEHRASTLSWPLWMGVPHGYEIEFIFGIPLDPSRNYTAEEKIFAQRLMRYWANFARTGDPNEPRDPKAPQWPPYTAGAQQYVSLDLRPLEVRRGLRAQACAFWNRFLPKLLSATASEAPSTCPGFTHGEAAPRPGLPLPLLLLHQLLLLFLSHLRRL
T2 sequence (P81908 whole entry): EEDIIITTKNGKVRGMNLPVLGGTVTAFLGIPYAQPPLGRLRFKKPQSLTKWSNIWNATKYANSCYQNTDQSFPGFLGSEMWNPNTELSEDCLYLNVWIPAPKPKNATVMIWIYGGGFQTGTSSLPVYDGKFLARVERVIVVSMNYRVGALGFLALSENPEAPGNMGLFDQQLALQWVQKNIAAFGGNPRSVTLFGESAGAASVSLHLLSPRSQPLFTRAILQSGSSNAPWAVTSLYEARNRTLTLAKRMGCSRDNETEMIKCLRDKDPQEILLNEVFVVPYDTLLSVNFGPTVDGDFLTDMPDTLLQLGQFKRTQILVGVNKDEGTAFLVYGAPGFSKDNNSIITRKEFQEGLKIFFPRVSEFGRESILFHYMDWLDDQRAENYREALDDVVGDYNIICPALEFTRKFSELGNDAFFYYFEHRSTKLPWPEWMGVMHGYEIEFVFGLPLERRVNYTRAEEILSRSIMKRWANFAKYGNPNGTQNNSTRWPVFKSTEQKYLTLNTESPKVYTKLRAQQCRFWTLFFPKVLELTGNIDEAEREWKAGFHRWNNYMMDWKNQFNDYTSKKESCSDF
T3 sequence (O42275 24-633): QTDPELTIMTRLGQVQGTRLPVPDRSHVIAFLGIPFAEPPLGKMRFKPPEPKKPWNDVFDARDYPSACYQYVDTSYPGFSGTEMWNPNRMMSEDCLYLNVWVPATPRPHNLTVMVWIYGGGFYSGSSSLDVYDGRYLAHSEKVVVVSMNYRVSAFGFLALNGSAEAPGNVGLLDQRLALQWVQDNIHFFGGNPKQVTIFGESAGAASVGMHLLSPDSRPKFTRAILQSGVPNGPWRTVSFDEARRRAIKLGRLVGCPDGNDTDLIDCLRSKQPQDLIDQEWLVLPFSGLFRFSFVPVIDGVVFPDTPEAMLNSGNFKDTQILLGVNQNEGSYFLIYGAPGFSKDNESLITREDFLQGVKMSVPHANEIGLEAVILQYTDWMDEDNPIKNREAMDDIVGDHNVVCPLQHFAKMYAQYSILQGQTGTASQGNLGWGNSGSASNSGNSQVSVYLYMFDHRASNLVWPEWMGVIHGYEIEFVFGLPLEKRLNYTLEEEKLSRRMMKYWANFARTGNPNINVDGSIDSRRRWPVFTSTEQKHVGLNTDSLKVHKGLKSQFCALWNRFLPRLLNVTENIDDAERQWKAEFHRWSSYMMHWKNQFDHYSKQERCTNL

CC(=O)C(=NNc1ccc(C)cc1)C(=O)C(F)(F)F [1c, 1,1,1-trifluoro-3-[2-(4-methylphenyl)hydrazinylidene]pentane-2,4-dione]
inhibitory activity against CES [1]: moderate inhibitory activity
radical-scavenging activity in the ABTS assay [2]: high radical-scavenging activity

Cc1ccc(NN=C(C(=O)c2ccccc2)C(=O)C(F)(F)F)cc1 [1d, 4,4,4-trifluoro-2-[2-(4-methylphenyl)hydrazinylidene]-1-phenylbutane-1,3-dione]
radical-scavenging activity in the ABTS assay [2]: high radical-scavenging activity

CC(=O)C(/N=N/c1ccc(C)cc1)=C(\C)NCCCCCCNc1c2c(nc3ccccc13)CCCC2 [6b]
IC50 [3]: 0.342 ± 0.015 µM
IC50 [4]: 0.138 ± 0.002 µM
Type of AChE inhibition [5, 11]: mixed type of inhibition
αKi (noncompetitive component), AChE ([5]; mixed type inhibition): 0.473 ± 0.041 µM
Ki ([5]; mixed type inhibition, read-out: Ki (competitive component), AChE): 0.254 ± 0.018 µM
Type of BChE inhibition [6, 11]: mixed type of inhibition
αKi (noncompetitive component), BChE ([6]; mixed type inhibition): 0.224 ± 0.022 µM
Ki ([6]; mixed type inhibition, read-out: Ki (competitive component), BChE): 0.095 ± 0.008 µM
inhibition at 20 µM [7]: 19 ± 1.3%
ABTS•+-scavenging activity, TEAC ([8]; Trolox equivalent antioxidant capacity, mean ± SEM): 1.00 ± 0.02
IC50 ([8]; concentration for 50% reduction of ABTS radical cation): 18.6 ± 1.4 µM
FRAP (Fe3+-reducing activity), TE [9]: 0.48 ± 0.04
Inhibitory activity against CES, % inhibition at 20 μM [10]: 29.0 ± 0.1%
